The target in test [1] is T1, recombinant 5-Lox (Homo sapiens, UniProt P09917).
T1 sequence (P09917 1-674): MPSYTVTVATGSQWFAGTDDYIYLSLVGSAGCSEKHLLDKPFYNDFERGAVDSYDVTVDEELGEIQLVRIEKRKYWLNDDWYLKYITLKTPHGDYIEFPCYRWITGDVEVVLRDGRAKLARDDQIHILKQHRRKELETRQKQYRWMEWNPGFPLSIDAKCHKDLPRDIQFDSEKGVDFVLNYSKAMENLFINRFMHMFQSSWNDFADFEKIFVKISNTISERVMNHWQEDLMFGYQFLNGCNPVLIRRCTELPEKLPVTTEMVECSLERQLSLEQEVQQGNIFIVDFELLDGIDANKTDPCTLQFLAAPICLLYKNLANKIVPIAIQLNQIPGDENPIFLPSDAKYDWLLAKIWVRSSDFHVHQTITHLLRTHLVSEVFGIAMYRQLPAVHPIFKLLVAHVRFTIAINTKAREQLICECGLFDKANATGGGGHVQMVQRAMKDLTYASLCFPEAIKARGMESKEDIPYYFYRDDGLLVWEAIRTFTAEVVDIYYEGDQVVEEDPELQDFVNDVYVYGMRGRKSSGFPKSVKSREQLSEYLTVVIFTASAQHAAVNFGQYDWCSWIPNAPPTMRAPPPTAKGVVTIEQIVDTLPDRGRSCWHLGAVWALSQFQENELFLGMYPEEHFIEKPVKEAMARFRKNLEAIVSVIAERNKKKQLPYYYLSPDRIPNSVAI
Nature of the test: Assay for 5-Lipoxygenase Activity. Format: biochemical. The settings on record: arachidonic acid, absorbance at 236 nm (AUC), range stated for the group of compounds tested, read-out: 5-1, poxygenase inhibition IC50. As for the experimental part: Assay for 5-Lipoxygenase Activity
In a 96 well UV-plate, 100 μl of phosphate buffer saline (PBS) containing DTT (200 μM), ATP (100 μM) and calcium chloride (100 μM) was added. To each well 0.5 μl of test drug (200 times concentrated) or vehicle was added, followed by 4 μl of recombinant 5-Lox (3 units/μl) and was incubated at 37° C. for 5 min. The reaction was initiated by adding 1 μl of 1 mM freshly prepared arachidonic acid and increase in absorbance was monitored at 236 nm for 10 min. (J Biol. Chem. 261:11512, 1986) A plot of absorbance verses time curve was prepared and area under curve (AUC) was computed for each well. Percent inhibition of AUC for different treatments was calculated with respect to the difference between the Arachidonic acid stimulated and negative control values, to compute IC50 values.

In test [2] the test system is LTB4 release. Nature of the test: A23187 Induced LTB4 Release. Format: cell-based. Particulars: Neutrophil; neutrophils from healthy human donors, 1 hour with test drug, 0.3 μg/ml A23187 for 10 min, LTB4 ELISA; range stated for the group of compounds tested; read-out: A123187 induced LTB4 release IC50. The procedure: The compounds of the present invention are tested in one or both of the assays described herein. Standard assays are used to evaluate activity of compounds in present invention on inflammatory cells. Attenuation of agonist-induced release of lipid mediator of neutrophil chemotaxis, leukotriene B4 (LTB4), is used to evaluate Inhibitory effect on neutrophils.
Venous blood was collected from healthy human donors using heparin as an anti-coagulant. Neutrophils were isolated from freshly drawn blood after dextran sedimentation and ficoll separation (Eur J Biochem. 169, 175, 1987), 180 μl of the of neutrophil suspension (0.2×10^6 cells/ml) was taken and added 19 μL of Hank's Buffer salt solution along with 1 μL of the test drug (200 times concentrated) in a 24 well plate and incubated at 37° C. for 1 hour, 3 minutes before the end of test compound incubation, 0.25 mM Ca^++/Mg^++ were added. Then, 0.3 μg/ml A23187 (Sigma Chem, USA) was added and incubated for further 10 min at 37° C. The reaction was stopped by adding 80 μL of cold methanol and centrifuged to remove cell debris (J Pharmacol Exp Ther. 297:267, 2001). The samples were analysed for LTB4 release using LTB4ELISA kits (Assay Design Inc., USA). The amount of LTB4 released was quantified and percent inhibition of LTB4 release was calculated with respect to the difference between the A23187 stimulated and negative control cells, to compute IC50 values.
Background: In an ELISA, binding on a coated surface is turned into a signal by an enzyme label.

pIC50: −log10 of the molar value.

The text below walks through data of patent publication US20080114031A1, “MONOSACCHARIDE DERIVATIVES” (priority 2006, published 2008).

By pIC50 is commonly meant the negative decadic logarithm of the IC50, by convention in mol/L. With `CC1(C)OCC(C2OC3OC(C)(C)OC3C2NC(=S)Nc2ccc(F)cc2)O1` [Compound No. 55, 1,2;5,6-Di-O-isopropylidene-3-deoxy-3-{[(4-fluorophenyl)-amino]thiocarbonyl}-amino-α-D-allofuranoside], the negative logarithm of the IC50 (pIC50) in test [1] is 5.00 to 6.52.

With `CC1(C)O[C@H]2O[C@H]([C@H]3COC(C)(C)O3)[C@@H](NC(=S)Nc3ccc(Cl)c(Cl)c3)[C@H]2O1` [Compound No. 60, 1,2;5,6-Di-O-isopropylidene-3-deoxy-3-{[(3,4-dichlorophenyl)-amino]thiocarbonyl}-amino-α-D-allofuranoside], in test [1], the negative-log IC50 (pIC50) was 5.00 to 6.52.

With `CC1(C)OCC(C2OC3OC(C)(C)OC3C2NC(=S)Nc2ccc(OCc3ccccc3)cc2)O1` [Compound No. 63, 1,2;5,6-Di-O-isopropylidene-3-deoxy-3-{[(4-benzyloxyphenyl)amino]thiocarbonyl}-amino-α-D-allofuranoside], the pIC50 in test [1] was 5.00 to 6.52.

Take `CC1(C)O[C@H]2O[C@H]([C@H]3COC(C)(C)O3)[C@@H](NC(=S)Nc3ccccc3[N+](=O)[O-])[C@H]2O1` [Compound No. 67, 1,2;5,6-Di-O-isopropylidene-3-deoxy-3-{[(2-nitrophenyl)-amino]thiocarbonyl}-amino-α-D-allofuranoside]: in test [1], the pIC50 is 5.00 to 6.52.

For `CC1(C)OCC(C2OC3OC(C)(C)OC3C2NC(=S)Nc2ccc(C#N)cc2)O1` [Compound No. 68, 1,2;5,6-Di-O-isopropylidene-3-deoxy-3-{[(4-cyanophenyl)-amino]thiocarbonyl}-amino-α-D-allofuranoside], the negative logarithm of the IC50 (pIC50) in test [1] is 5.00 to 6.52.

`CC1(C)OCC(C2OC3OC(C)(C)OC3C2NC(=O)Cc2ccccc2C(F)(F)F)O1` [Compound No. 80, 1,2;5,6-Di-O-isopropylidene-3-deoxy-3-{[(2-trifluoromethylphenyl)-methyl]carbonyl}-amino-α-D-allofuranoside]: the figures for the pIC50 in test [2] and in test [1] were 4.52 to 6.89 and 5.00 to 6.52, respectively.

Take `CC1(C)OCC(C2OC3OC(C)(C)OC3C2NC(=O)Cc2cccc(Cl)c2)O1` [Compound No. 84, 1,2;5,6-Di-O-isopropylidene-3-deoxy-3-{[(3-chlorophenyl)-methyl]carbonyl}-amino-α-D-allofuranoside]: the values for the negative-log IC50 (pIC50) in test [2] and in test [1] were 4.52 to 6.89 and 5.00 to 6.52, respectively.

`CC1(C)OCC(C2OC3OC(C)(C)OC3C2NC(=O)Cc2ccc(Cl)c(Cl)c2)O1` [Compound No. 100, 1,2;5,6-Di-O-isopropylidene-3-deoxy-3-{[(3,4-dichlorophenyl)-methyl]carbonyl}-amino-α-D-allofuranoside]: the values for the pIC50 in test [2] and in test [1] were 4.52 to 6.89 and 5.00 to 6.52, respectively.

For the compound `CC1(C)OCC(C2OC3OC(C)(C)OC3C2NC(=S)Nc2ccc(F)cc2)O1` [Compound No. 101, 1,2;5,6-Di-O-isopropylidene-3-deoxy-3-{[(4-fluorophenyl)-amino]thiocarbonyl}-amino-α-D-glucofuranoside], in test [2], the pIC50 was 4.52 to 6.89.

As for `CC1(C)OCC(C2OC3OC(C)(C)OC3C2NC(=S)Nc2ccccc2F)O1` [Compound No. 103, 1,2;5,6-Di-O-isopropylidene-3-deoxy-3-{[(2-fluorophenyl)-amino]thiocarbonyl}-amino-α-D-glucofuranoside], the values for the pIC50 in test [2] and in test [1] were 4.52 to 6.89 and 5.00 to 6.52, respectively.
